How the values were obtained:
[1] = XRPD crystal form before and after milling (Example 8); format: physicochemical; settings: input vs milled with F127
Text: Particles were isolated by centrifugation, then resuspended in H2O and then recentrifuged. The wet sample was resuspended in H2O and deposited thinly and evenly onto a flat zero background sample holder (Rigaku 906165). The sample was allowed to air dry.
Milligram amounts were packed as an evenly thin layer of solid onto a zero background sample holder (Rigaku 906165).
X-ray Powder Diffraction (XRPD) patterns were obtained using a Rigaku MiniFlex 600 benchtop x-ray diffractometer equipped with a Cu X-ray tube (Cu/Kα=1.54059 Å), a six-position sample changer and a D/teX Ultra detector. […] Diffraction patterns were viewed and analyzed using PDXL analysis software provided by the instrument manufacturer. A reference standard silicon powder (NIST Standard Reference Material 640d) generated a peak at 28.43° and 28.45° two theta when samples were prepared as suspension in H2O (to simulate Procedure A) and Procedure B, respectively.
All input crystalline forms were arbitrarily designated as “A” forms. New forms that emerged after milling, if any, were sequentially designated as “B”, “C”, etc.

[2] = DLS size and PDI of cortisone and hydrocortisone milled with F127 (Example 7); format: physicochemical; settings: suspension milled with 5% F127 in PBS pH 7.1, 25 hours
Procedure: A milling procedure was employed in which aqueous dispersions containing coarse compound particles were individually milled with F127 at near-neutral pH buffer using a grinding medium. Briefly, a slurry containing 5% of compound and 5% F127 in PBS (0.0067 M PO43), pH 7.1 was added to an equal bulk volume of 1-mm ceria-stabilized zirconium oxide beads in a glass vial (e.g., 2 mL of slurry per 2 mL of beads). A magnetic stir bar was used to agitate the beads, stirring at approximately 500 rpm at ambient conditions for 25 hours.
The milled suspensions were subjected to dynamic light scattering (DLS) measurements to determine particle size and polydispersity index (PDI, a measure of the width of the particle size distribution). The samples for DLS measurements were buffered with HyClone™ PBS (phosphate-buffered saline) to produce isotonic samples that have a physiologically relevant pH.

Crystal form change after milling of "A" forms? [1]	PDI [2]	Size (Z-average) [2] [nm]	SMILES
No	0.074	225	C[C@]12CCC(=O)C=C1CC[C@@H]1[C@@H]2C(=O)C[C@@]2(C)[C@H]1CC[C@]2(O)C(=O)CO [Compound 1, Cortisone]
No	0.258	357	C[C@]12CCC(=O)C=C1CC[C@@H]1[C@@H]2[C@@H](O)C[C@@]2(C)[C@H]1CC[C@]2(O)C(=O)CO [Compound 2, hydrocortisone]
